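Protocol summary: plate cells (96-well), add compound at 5 concentrations, incubate 48 h, interpolate endpoints linearly. Here, GI50 denotes the concentration required for 50% inhibition of growth.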 Active and inactive are the calls of the source. Cut-off read from the data, not from the text of the source: active = GI50 up to about 1.1 µM and inactive = higher.
Key:
Assay in all cases: NCI anticancer screen, dose series, 48 h
[1] = system: A498
[2] = system: A549
[3] = system: BT-549
[4] = system: CCRF-CEM
[5] = system: COLO 205
[6] = system: HCC 2998
[7] = system: HOP-92
[8] = system: HT-29
[9] = system: KM12
[10] = system: MCF7
[11] = system: NCI-H522
[12] = system: OVCAR-3
[13] = system: RXF 393
[14] = system: SK-MEL-28
[15] = system: SR
[16] = system: T47D
[17] = system: TK-10
[18] = system: UACC-257
[19] = system: UACC-62
[20] = system: DMS-114

| Structure (SMILES) | GI50 [1] | GI50 [2] | GI50 [3] | GI50 [4] | GI50 [5] | GI50 [6] | GI50 [7] | GI50 [8] | GI50 [9] | GI50 [10] | GI50 [11] | GI50 [12] | GI50 [13] | GI50 [14] | GI50 [15] | GI50 [16] | GI50 [17] | GI50 [18] | GI50 [19] | GI50 [20] |
| --- | --- | --- | --- | --- | --- | --- | --- | --- | --- | --- | --- | --- | --- | --- | --- | --- | --- | --- | --- | --- |
| O=C1c2ccccc2-c2ccc(N(Cc3ccc(Br)cc3)Cc3ccc(Br)cc3)cc21 | > 100 µM (inactive) | 22.3 µM (inactive) | > 100 µM (inactive) | 11.1 µM (inactive) | > 100 µM (inactive) | > 100 µM (inactive) | > 100 µM (inactive) | > 100 µM (inactive) | > 100 µM (inactive) | > 100 µM (inactive) | > 100 µM (inactive) | > 100 µM (inactive) | > 100 µM (inactive) | > 100 µM (inactive) | 2.44 µM (inactive) | > 100 µM (inactive) | > 100 µM (inactive) | > 100 µM (inactive) | > 100 µM (inactive) |  |
| CCN(CC)CCNC(=O)c1cccc2cc3ccccc3nc12 | 6.92 µM (inactive) | 3.56 µM (inactive) |  | 5.69 µM (inactive) | 4.44 µM (inactive) | 5.89 µM (inactive) | 4.78 µM (inactive) | 3.95 µM (inactive) | 8 µM (inactive) |  |  | 11.6 µM (inactive) | 3.49 µM (inactive) | 9.71 µM (inactive) |  |  | 4.79 µM (inactive) |  | 4.79 µM (inactive) | 5.89 µM (inactive) |
| CC1OC(OC2C(O)COC(OC3C(C)OC(OC4C(OC(=O)[C@]56CCC(C)(C)C[C@@H]5C5=CCC7[C@@]8(C)C[C@H](O)[C@H](OC9OC(CO)C(O)C(O)C9O)[C@@](C)(CO)[C@@H]8CC[C@@]7(C)[C@]5(C)CC6)OCC(O)C4O)C(O)C3OC3OCC(O)(CO)C3O)C2O)C(O)C(O)C1O (stereo partly specified) | 3.97 µM (inactive) | 4.62 µM (inactive) | 16.6 µM (inactive) | 18.5 µM (inactive) | 2.51 µM (inactive) | 5.18 µM (inactive) | 26.6 µM (inactive) | 17.5 µM (inactive) | 18.8 µM (inactive) | 25.5 µM (inactive) | 16.1 µM (inactive) | 18.9 µM (inactive) | 14.7 µM (inactive) | 3.29 µM (inactive) | 13.8 µM (inactive) | 18.8 µM (inactive) | 14.5 µM (inactive) | 9.77 µM (inactive) | 13.2 µM (inactive) |  |
| CN1CCc2c1nc(-c1ccc([N+](=O)[O-])cc1)c1c2N(C)CC1 | 43.2 µM (inactive) | > 100 µM (inactive) |  | > 100 µM (inactive) | 54.6 µM (inactive) | > 100 µM (inactive) | 9.4 µM (inactive) | 25.5 µM (inactive) | 30.9 µM (inactive) |  |  | 8.15 µM (inactive) | 35.2 µM (inactive) |  |  |  | > 100 µM (inactive) | > 100 µM (inactive) | > 100 µM (inactive) | 32 µM (inactive) |
| COc1ccccc1N1C(=O)CC(=O)N(C(=O)CCCCCCCCC(=O)N2C(=O)CC(=O)N(c3ccccc3OC)C2=S)C1=S | > 100 µM (inactive) | 53.7 µM (inactive) | 55.3 µM (inactive) | 27.3 µM (inactive) | > 100 µM (inactive) | > 100 µM (inactive) | 59.2 µM (inactive) | 49.4 µM (inactive) | 53.8 µM (inactive) | 44.2 µM (inactive) | 47.3 µM (inactive) | 55.2 µM (inactive) | 99.3 µM (inactive) | > 100 µM (inactive) | 28.4 µM (inactive) | 87.3 µM (inactive) | > 100 µM (inactive) | > 100 µM (inactive) | 41.8 µM (inactive) |  |
| C/C=C1\C=C(OC)CN(CCc2c[nH]c3ccccc23)C1 | 44 µM (inactive) | 80.7 µM (inactive) |  | > 100 µM (inactive) | 34.3 µM (inactive) | 18 µM (inactive) |  | 25.4 µM (inactive) | 52.2 µM (inactive) |  | 46 µM (inactive) | 53.5 µM (inactive) |  |  | 61.8 µM (inactive) |  | > 100 µM (inactive) | 48.4 µM (inactive) | 41.3 µM (inactive) | 43.4 µM (inactive) |
| COC(=O)CCC(=O)Nc1cc(C)ccc1C | > 100 µM (inactive) | > 100 µM (inactive) |  | > 100 µM (inactive) | > 100 µM (inactive) | > 100 µM (inactive) | > 100 µM (inactive) | > 100 µM (inactive) | > 100 µM (inactive) |  | > 100 µM (inactive) | > 100 µM (inactive) | > 100 µM (inactive) | > 100 µM (inactive) |  |  | > 100 µM (inactive) | > 100 µM (inactive) | > 100 µM (inactive) | > 100 µM (inactive) |
| CCc1cccc(C)c1NC(=O)CCc1nnc(S)[nH]1 |  | > 100 µM (inactive) |  | > 100 µM (inactive) |  | > 100 µM (inactive) | > 100 µM (inactive) | > 100 µM (inactive) | > 100 µM (inactive) |  | > 100 µM (inactive) | > 100 µM (inactive) | > 100 µM (inactive) | > 100 µM (inactive) | > 100 µM (inactive) |  | > 100 µM (inactive) | > 100 µM (inactive) | > 100 µM (inactive) | > 100 µM (inactive) |
| CC(C)c1cccc(C(C)C)c1NC(=O)C(=O)C(C(=O)c1ccccc1-c1ccccc1)C1OC(=O)c2ccccc21 (stereo unspecified) |  | 28 µM (inactive) |  | 13.8 µM (inactive) | 30.9 µM (inactive) | 17.6 µM (inactive) |  | 17.9 µM (inactive) | 16.7 µM (inactive) |  | 15.5 µM (inactive) |  | 12.9 µM (inactive) | 20.1 µM (inactive) | 22.6 µM (inactive) |  | 26.5 µM (inactive) | 12.6 µM (inactive) | 17.5 µM (inactive) | 17.7 µM (inactive) |
| CC(=O)CCCCCCCCCCCC[C@@H]1CC[C@H](C)[C@H](O)N1 |  | > 100 µM (inactive) |  | > 100 µM (inactive) | > 100 µM (inactive) | > 100 µM (inactive) | > 100 µM (inactive) | 38.3 µM (inactive) | > 100 µM (inactive) |  | > 100 µM (inactive) | > 100 µM (inactive) | > 100 µM (inactive) | > 100 µM (inactive) | 90.4 µM (inactive) |  | > 100 µM (inactive) | > 100 µM (inactive) | 97.7 µM (inactive) | > 100 µM (inactive) |
| CCCCNC1=C(C(=O)OCC)/C(=N/NC(=O)c2ccccc2O)CO1 | > 100 µM (inactive) | 47.8 µM (inactive) |  | 23.7 µM (inactive) | > 100 µM (inactive) | 34.4 µM (inactive) |  |  | 79.3 µM (inactive) |  | 13.4 µM (inactive) | 27.1 µM (inactive) | 23.8 µM (inactive) | 18.5 µM (inactive) |  |  | 98.4 µM (inactive) | 2.82 µM (inactive) | 13.1 µM (inactive) | 36.7 µM (inactive) |
| C=C1C(=O)O[C@H]2C/C(C)=C/CC[C@@]3(C)O[C@](C)(CC[C@@H]3I)[C@@H](I)C[C@@H]12 | 9.68 µM (inactive) | 6.78 µM (inactive) | 4.75 µM (inactive) | 0.592 µM (active) | 3.39 µM (inactive) | 4.09 µM (inactive) | 5.83 µM (inactive) | 3.37 µM (inactive) | 3.61 µM (inactive) | 2.25 µM (inactive) | 3.05 µM (inactive) | 3.21 µM (inactive) | 3.97 µM (inactive) | 7.01 µM (inactive) | 1.5 µM (inactive) | 5.46 µM (inactive) | 6.03 µM (inactive) | 5.9 µM (inactive) | 4.16 µM (inactive) |  |
| CCOC1CC2OC(=O)C1C=C2C(=O)OC (stereo unspecified) | > 100 µM (inactive) | > 100 µM (inactive) |  | 16.8 µM (inactive) | 19.1 µM (inactive) | > 100 µM (inactive) | 32.7 µM (inactive) | 37.5 µM (inactive) | 54.5 µM (inactive) |  | 12 µM (inactive) | 28.4 µM (inactive) |  | 21 µM (inactive) |  |  | 37.8 µM (inactive) | 27.7 µM (inactive) | 30.5 µM (inactive) | 20.4 µM (inactive) |
| CCN(CC)C(=O)C(C)n1cc(C)c(=O)[nH]c1=O (stereo unspecified) |  | > 100 µM (inactive) |  | > 100 µM (inactive) | > 100 µM (inactive) | > 100 µM (inactive) |  | > 100 µM (inactive) | > 100 µM (inactive) |  | > 100 µM (inactive) | > 100 µM (inactive) | > 100 µM (inactive) | > 100 µM (inactive) |  |  | > 100 µM (inactive) |  | > 100 µM (inactive) | > 100 µM (inactive) |
| OCc1ccc2[n+](c1)CCC1c3ccccc3NC21 (stereo unspecified) |  | > 300 µM (inactive) |  | > 300 µM (inactive) | > 300 µM (inactive) | > 300 µM (inactive) | 230 µM (inactive) | > 300 µM (inactive) | > 300 µM (inactive) |  | > 300 µM (inactive) | 240 µM (inactive) | > 300 µM (inactive) | > 300 µM (inactive) | > 300 µM (inactive) |  | > 300 µM (inactive) | 283 µM (inactive) | > 300 µM (inactive) | 186 µM (inactive) |
| CC1CC(=O)CC[C@@H]1OCc1ccccc1 (stereo partly specified) | > 100 µM (inactive) | > 100 µM (inactive) |  | 53.8 µM (inactive) | > 100 µM (inactive) | > 100 µM (inactive) |  | > 100 µM (inactive) | > 100 µM (inactive) |  |  | > 100 µM (inactive) | > 100 µM (inactive) |  |  |  | > 100 µM (inactive) | > 100 µM (inactive) | > 100 µM (inactive) | 94.2 µM (inactive) |
| Cc1cc2c(=O)n(-c3ccc(F)cc3)c(C)nc2c(C(=O)O)c1C | > 100 µM (inactive) | > 100 µM (inactive) |  | > 100 µM (inactive) | > 100 µM (inactive) | > 100 µM (inactive) | > 100 µM (inactive) | > 100 µM (inactive) | > 100 µM (inactive) |  |  | > 100 µM (inactive) | > 100 µM (inactive) | > 100 µM (inactive) | > 100 µM (inactive) |  | > 100 µM (inactive) | > 100 µM (inactive) | > 100 µM (inactive) | > 100 µM (inactive) |
